# Laboratory results as given in patent US4594348A, “Use of some 2-[2-[4-phenyl-1-piperazinyl]ethyl]-1H-naphth-[1,2-D]imidazole derivatives and their pharmaceutically acceptable salts in the treatment of cardiovascular diseases” (Gruppo Lepetit S.p.A., priority 1984, dated 1986).
# Columns and labels:
# [1] = test system: conscious renal hypertensive dogs; experiment: Systolic blood pressure in conscious renal hypertensive dogs (oral, Goldblatt's method); format: in vivo, dog (mongrel); settings: for % systolic pressure variation: Table I; for % Δ (% variation of the S.B.P. over the basal value) / S.B.P. (systolic blood pressure): Table III; for S.B.P. (systolic blood pressure): mean ± SE
# Description: The experiments herein described which use renal hypertensive dogs are conducted essentially as described in the above cited text.
# (§1) More particularly, in the experiments with conscious renal hypertensive dogs, mongrel dogs with two clips on the renal arteries were used according to the Goldblatt's method. The compounds were administered by oral route as powder in gelatine capsules. Systolic blood pressure (SBP) was registered at the tail (indirect method).
# ^a S.B.P. = Systolic blood pressure. It is determined after oral
# administration where three animals were employed for each dose. It is
# expressed in mmHg as mean value ± SE.
# ^b % Δ = % variation of the S.B.P. over the basal value (time
# 0) at the indicated time after administration.
# [2] = test system: conscious normotensive dogs; experiment: Blood pressure in conscious normotensive dogs (oral); format: in vivo, dog (mongrel); settings: for % systolic blood pressure variation: Table II, oral; for Mean systolic blood pressure / % Δ of mean systolic blood pressure: Table V, single oral 20 mg/kg
# Description: (§2) As for the experiments with conscious normotensive dogs, mongrel dogs with incannulated abdominal aorta or with incannulated abdominal aorta and cardiac left ventricle were used. The compounds were administered by oral route as powder in gelatine capsules. Mean blood pressure (M.B.P.) was registered directly using a Bentley pressure transducer.
# [3] = test system: renal hypertensive dogs; experiment: Heart rate in renal hypertensive dogs; format: in vivo, dog (mongrel); settings: experiments of Table III, oral
# Description: as §1
# [4] = test system: renal hypertensive dogs; experiment: Tachiphylaxis experiment: daily oral administration for 7 consecutive days, systolic blood pressure; format: in vivo, dog; settings: for % Δ of S.B.P., peak effect (7h) / S.B.P., basal value / S.B.P., peak effect (7h) / % Δ of S.B.P., basal value: Table IV, 10 mg/kg/die per os
# [5] = test system: conscious normotensive dogs; experiment: Myocardial contractility in conscious normotensive dogs; format: in vivo, dog (mongrel); settings: single oral 20 mg/kg; for Myocardial contractility / % Δ of myocardial contractility: Table V
# Description: as §2
# Myocardial contractility was calculated as
# 1/P·dp/dt ^(max)
# The results of this experiment, which was conducted after a single oral administration of 20 mg/kg of the test compound, are summarized below: […]
# [6] = test system: mice; experiment: "running-fit" test (antagonism of the effects of morphine); format: in vivo, mouse; settings: morphine 60 mg/Kg s.c.
# Description: This test is conducted essentially as described in the literature.
# [7] = Acute toxicity (LD50) in mice; settings: mouse, in vivo
# Description: The LD50 values of the compounds of the invention are generally higher than 500 mg/kg when given per os and generally higher than 200-300 mg/kg when given intraperitoneally to mice. In particular, the approximate LD50 values for compound 3 in mice were 1000 mg/kg after oral administration and 600 mg/kg after i.p. administration. […] Representative experiments were conducted essentially as described by B. N. Ames, J. McCann., E. Yamasaki, "Methods for detecting carcinogens and mutagens with the salmonella/microsome mutagenicy test" in Mutation Research, 31, 347-364, (1975).
# [8] = test system: renal hypertensive dogs; experiment: CNS depressant effect and tachycardia during prolonged (7-day) treatment in dogs; format: in vivo, dog; settings: per os 10 mg/kg/die, 7 days
# [9] = test system: mongrel dogs; settings: dog, in vivo
# [10] = test system: Beagle dogs; settings: dog, in vivo, po
# [11] = test system: mongrel dogs; experiment: CNS-depressant activity in mongrel dogs (oral); settings: 100 mg/kg
# [12] = renal hypertensive dogs, oral, 10 mg/kg
# [13] = renal hypertensive dogs, oral, 20 mg/kg
smiles,measurement,setting,value
"Cn1c(CCN2CCN(c3ccccc3)CC2)nc2ccc3ccccc3c21 [Compound 2, 2-[2-(4-phenyl-1-piperazinyl)ethyl]-1-methyl-1H-naphth-[1,2-d]imidazole]",% systolic pressure variation,[1]; [12],-32%
same,% systolic blood pressure variation,[2]; 10 mg/kg,-30%
"Cn1c(CCN2CCN(c3cccc(C(F)(F)F)c3)CC2)nc2ccc3ccccc3c21 [Compound 6, 2-[2-[4-(3-trifluoromethylphenyl)-1-piperazinyl]ethyl]-1-methyl-1H-naphth[1,2-d]imidazole]",% systolic pressure variation,[1]; [13],-39%
"CC(C)n1c(CCN2CCN(c3cccc(C(F)(F)F)c3)CC2)nc2ccc3ccccc3c21.O=C(O)CC(O)(CC(=O)O)C(=O)O [Compound 3, 2-[2-[4-(3-trifluoromethylphenyl)-1-piperazinyl]ethyl]-1-(1-methylethyl)-1H-naphth[1,2-d]imidazole, 2-hydroxy-1,2,3-propantricarboxylate]",minimal effective dose,"[1]; Canis lupus familiaris, po, read-out: dose active in reducing the systolic blood pressure",≤ 5 mg/kg
same,% systolic pressure variation,[1]; [13],-24%
same,% systolic pressure variation,"[1]; renal hypertensive dogs, oral, 30 mg/kg",-20%
same,% Δ (% variation of the S.B.P. over the basal value),"[1]; oral 5 mg/kg, 1 h",-3%
same,S.B.P. (systolic blood pressure),"[1]; oral 5 mg/kg, 1 h",205 ± 5 mmHg
same,% Δ (% variation of the S.B.P. over the basal value),"[1]; oral 5 mg/kg, 3 h",-10%
same,S.B.P. (systolic blood pressure),"[1]; oral 5 mg/kg, 3 h",190 ± 5 mmHg
same,% Δ (% variation of the S.B.P. over the basal value),"[1]; oral 5 mg/kg, 5 h",-12%
same,S.B.P. (systolic blood pressure),"[1]; oral 5 mg/kg, 5 h",185 ± 7 mmHg
same,% Δ (% variation of the S.B.P. over the basal value),"[1]; oral 5 mg/kg, 7 h",-10%
same,S.B.P. (systolic blood pressure),"[1]; oral 5 mg/kg, 7 h",190 ± 4 mmHg
same,S.B.P. (systolic blood pressure),"[1]; oral 5 mg/kg, time 0 h (basal value), 3 animals",210 ± 7 mmHg
same,% Δ (% variation of the S.B.P. over the basal value),"[1]; oral 10 mg/kg, 1 h",-8%
same,S.B.P. (systolic blood pressure),"[1]; oral 10 mg/kg, 1 h",190 ± 4 mmHg
same,% Δ (% variation of the S.B.P. over the basal value),"[1]; oral 10 mg/kg, 3 h",-13%
same,S.B.P. (systolic blood pressure),"[1]; oral 10 mg/kg, 3 h",180 ± 7 mmHg
same,% Δ (% variation of the S.B.P. over the basal value),"[1]; oral 10 mg/kg, 5 h",-22%
same,S.B.P. (systolic blood pressure),"[1]; oral 10 mg/kg, 5 h",160 ± 10 mmHg
same,% Δ (% variation of the S.B.P. over the basal value),"[1]; oral 10 mg/kg, 7 h",-18%
same,S.B.P. (systolic blood pressure),"[1]; oral 10 mg/kg, 7 h",170 ± 8 mmHg
same,S.B.P. (systolic blood pressure),"[1]; oral 10 mg/kg, time 0 h (basal value)",205 ± 7 mmHg
same,% Δ (% variation of the S.B.P. over the basal value),"[1]; oral 20 mg/kg, 1 h",-8%
same,S.B.P. (systolic blood pressure),"[1]; oral 20 mg/kg, 1 h",175 ± 7 mmHg
same,% Δ (% variation of the S.B.P. over the basal value),"[1]; oral 20 mg/kg, 3 h",-14%
same,S.B.P. (systolic blood pressure),"[1]; oral 20 mg/kg, 3 h",165 ± 8 mmHg
same,% Δ (% variation of the S.B.P. over the basal value),"[1]; oral 20 mg/kg, 5 h",-27%
same,S.B.P. (systolic blood pressure),"[1]; oral 20 mg/kg, 5 h",140 ± 7 mmHg
same,% Δ (% variation of the S.B.P. over the basal value),"[1]; oral 20 mg/kg, 7 h",-32%
same,S.B.P. (systolic blood pressure),"[1]; oral 20 mg/kg, 7 h",130 ± 7 mmHg
same,S.B.P. (systolic blood pressure),"[1]; oral 20 mg/kg, time 0 h (basal value)",190 ± 8 mmHg
same,duration of the reduction of the blood pressure,"[1]; renal hypertensive dogs, oral",still present seven hours after administration
same,% systolic blood pressure variation,[2]; 10 mg/kg,-16%
same,% systolic blood pressure variation,[2]; 20 mg/kg,-15%
same,Mean systolic blood pressure,[2]; 0 min (basal),120 mmHg
same,% Δ of mean systolic blood pressure,[2]; 60 min,-0%
same,Mean systolic blood pressure,[2]; 60 min,120 mmHg
same,% Δ of mean systolic blood pressure,[2]; 120 min,-12%
same,Mean systolic blood pressure,[2]; 120 min,106 mmHg
same,% Δ of mean systolic blood pressure,[2]; 180 min,-15%
same,Mean systolic blood pressure,[2]; 180 min,102 mmHg
same,% Δ of mean systolic blood pressure,[2]; 300 min,-17%
same,Mean systolic blood pressure,[2]; 300 min,100 mmHg
same,% Δ of mean systolic blood pressure,[2]; 360 min,-12%
same,Mean systolic blood pressure,[2]; 360 min,106 mmHg
same,heart rate,[3],no increase in the heart rate was observed but only a slight and transient decrease
same,"% Δ of S.B.P., peak effect (7h)",[4]; day 1 of treatment,-20%
same,"S.B.P., basal value",[4]; day 1 of treatment,210 mmHg
same,"S.B.P., peak effect (7h)",[4]; day 1 of treatment,170 mmHg
same,"% Δ of S.B.P., basal value",[4]; day 3 of treatment,-5%
same,"% Δ of S.B.P., peak effect (7h)",[4]; day 3 of treatment,-20%
same,"S.B.P., basal value",[4]; day 3 of treatment,200 mmHg
same,"S.B.P., peak effect (7h)",[4]; day 3 of treatment,170 mmHg
same,"% Δ of S.B.P., basal value",[4]; day 5 of treatment,-12%
same,"% Δ of S.B.P., peak effect (7h)",[4]; day 5 of treatment,-24%
same,"S.B.P., basal value",[4]; day 5 of treatment,185 mmHg
same,"S.B.P., peak effect (7h)",[4]; day 5 of treatment,160 mmHg
same,"% Δ of S.B.P., basal value",[4]; day 7 of treatment,-15%
same,"% Δ of S.B.P., peak effect (7h)",[4]; day 7 of treatment,-29%
same,"S.B.P., basal value",[4]; day 7 of treatment,180 mmHg
same,"S.B.P., peak effect (7h)",[4]; day 7 of treatment,150 mmHg
same,tachiphylaxis,"[4]; per os daily for 7 consecutive days, 10 mg/kg/die",proved not to induce tachiphylaxis
same,Myocardial contractility,[5]; 0 min (basal),48 mmHg sec^-1
same,% Δ of myocardial contractility,[5]; 60 min,+10%
same,Myocardial contractility,[5]; 60 min,53 mmHg sec^-1
same,% Δ of myocardial contractility,[5]; 120 min,+12%
same,Myocardial contractility,[5]; 120 min,54 mmHg sec^-1
same,% Δ of myocardial contractility,[5]; 180 min,+10%
same,Myocardial contractility,[5]; 180 min,53 mmHg sec^-1
same,% Δ of myocardial contractility,[5]; 300 min,+12%
same,Myocardial contractility,[5]; 300 min,54 mmHg sec^-1
same,% Δ of myocardial contractility,[5]; 360 min,+6%
same,Myocardial contractility,[5]; 360 min,51 mmHg sec^-1
same,effect on myocardial contractility (in words),[5]; conscious normotensive dogs,proved not to reduce the myocardial contractility
same,"antagonism of morphine in ""running-fit"" test",[6]; 30 mg i.p.,inactive
same,"antagonism of morphine in ""running-fit"" test",[6]; 60 mg per os,inactive
same,LD50,"[7]; ip, intraperitoneal",~600 mg/kg
same,LD50,"[7]; po, per os",~1000 mg/kg
same,CNS depressant effect during the prolonged treatment,[8],no tachycardia or CNS depressant effect was observed
same,tachycardia during the prolonged treatment,[8],no tachycardia
same,dose beginning CNS-depressant activity relative to effective antihypertensive dose,[9],at least about ten times higher
same,dose at which signs of CNS-depression begin,[9]; po,100 mg/kg
same,dose at which CNS-depressant effects begin,[10],higher than 100 mg/kg
same,signs of CNS-depression,[11],slight sedation and very slight motor incoordination
"Cn1c(CCN2CCN(c3ccc(Cl)cc3)CC2)nc2ccc3ccccc3c21 [Compound 4, 2-[2-[4-(4-chlorophenyl)-1-piperazinyl]ethyl]-1-methyl-1H-naphth[1,2-d]imidazole]",% systolic pressure variation,[1]; [12],-29%
same,% systolic pressure variation,[1]; [13],-31%
"CC(C)n1c(CCN2CCN(c3ccccc3)CC2)nc2ccc3ccccc3c21 [Compound 1, 2-[2-(4-phenyl-1-piperazinyl)ethyl]-1-(1-methylethyl)-1H-naphth[1,2-d]imidazole]",% systolic blood pressure variation,[2]; 1 mg/kg,-17%
same,% systolic blood pressure variation,[2]; 5 mg/kg,-37%
"CC(C)n1c(CCN2CCN(c3ccc(Cl)cc3)CC2)nc2ccc3ccccc3c21 [Compound 7, 2-[2-[4-(4-chlorophenyl)-1-piperazinyl]ethyl]-1-(1-methylethyl)-1H-naphth[1,2-d]imidazole]",% systolic pressure variation,"[1]; renal hypertensive dogs, oral, 2 mg/kg",-14%
same,% systolic pressure variation,"[1]; renal hypertensive dogs, oral, 5 mg/kg",-35%
"COc1cccc(N2CCN(CCc3nc4ccc5ccccc5c4n3C(C)C)CC2)c1 [Compound 5, 2-[2-[4-(3-methoxyphenyl)-1-piperazinyl]ethyl]-1-(1-methylethyl)-1H-naphth[1,2-d]imidazole]",% systolic pressure variation,[1]; [13],-20%
